Data reported in EP2468303A1, “Functionalized nucleic acids and particles comprising them for the treatment of HIV infections” (priority 2010, dated 2012).

Test system: pNL4.3 virus
Assay: Time-of-addition experiment in single-round infection assay
Format: cell-based, HIV-1
Details: Hela P4 cells, 100 nM, whatever the time of addition post-infection
Source text: Antiviral activity was quantified using the above-described CPRG assay.

Cc1nnc(C(=O)NC(C)(C)c2nc(C(=O)NCc3ccc(F)cc3)c(O)c(=O)n2C)o1 [raltegravir]
viral replication blocked: < 100%
